Source: US6117890A, “Method for treating bipolar disorder” (Eli Lilly and Company, priority 1998, dated 2000)

Assays:
[1] = molecular target: muscarinic receptors (3H-oxotremorine-M binding); test: 3H-oxotremorine-M binding study; details: radioligand 3H-oxotremorine-M; read-out: inhibition constant (Ki) for binding of 3H-oxotremorine-M
[2] = test system: m4 receptors (CHO m4 cells); test: cAMP formation in CHO m4 cells treated with pertussis toxin; format: cell-based
From the text: Muscarinic agonists stimulate the formation of CAMP up to 10 fold in CHO m4 cells treated with pertussisi toxin and the pharmacology is consistent with the mediation by m4 receptors. Eckols K. Soc. Neurosci Abstr., 21:2040 (1995).

In the case of CCCCCCOc1nsnc1C1=CCCN(C)C1 [xanomeline, 3-(4-hexyloxy-1,2,5-thiadiazol-3-yl)-1,2,5,6-tetrahydro-1-methylpyridine], the Ki [1] is reported as 2 nM and the “stimulation of formation of cAMP” value [2] is reported as “efficaciously and potently stimulated the formation of cAMP”.
